From the CheMixHub drug solubility set

Experiment: xn = mol fraction of the nth substance listed, in the solute-free solvent

O=C(O)c1cc([N+](=O)[O-])ccc1O + CC#N + O
solubility (g/100 g solution)
Settings | 278.15 K | 283.15 K | 288.15 K | 293.15 K | 298.15 K | 303.15 K | 308.15 K | 313.15 K | 318.15 K | 323.15 K
x2 = 0.04651 | 0.16 | 0.194 | 0.238 | 0.291 | 0.357 | 0.446 | 0.552 | 0.685 | 0.838 | 1.03
x2 = 0.0989 | 0.399 | 0.59 | 0.782 | 0.967 | 1.18 | 1.42 | 1.71 | 2.02 | 2.34 | 2.73
x2 = 0.1583 | 1.06 | 1.33 | 1.68 | 2.11 | 2.54 | 3.11 | 3.71 | 4.38 | 5.16 | 6.05
x2 = 0.2264 | 2.36 | 2.8 | 3.34 | 4.03 | 4.74 | 5.57 | 6.57 | 7.63 | 8.9 | 10.3
x2 = 0.3051 | 3.97 | 4.82 | 5.77 | 6.86 | 8.19 | 9.58 | 11.1 | 12.7 | 14.5 | 16.6
x2 = 0.397 | 7.03 | 7.9 | 8.98 | 10.4 | 11.9 | 13.8 | 15.9 | 18.1 | 20.2 | 22.5
x2 = 0.506 | 9.09 | 10.3 | 11.8 | 13.6 | 15.5 | 17.5 | 19.6 | 21.8 | 23.9 | 26.2
x2 = 0.6372 | 10.7 | 11.8 | 13.5 | 15.5 | 17.8 | 19.9 | 21.9 | 24.7 | 26.9 | 28.9
x2 = 0.798 | 12 | 13.3 | 15 | 17.2 | 19.5 | 21.5 | 24.3 | 26.8 | 29.3 | 31.8

Nc1cncc(Cl)n1 + CCCO + O
solubility (g/100 g solution)
Settings | 278.15 K | 283.15 K | 288.15 K | 293.15 K | 298.15 K | 303.15 K | 308.15 K | 313.15 K | 318.15 K | 323.15 K
x2 = 0.03225 | – | – | – | – | – | – | – | – | – | 0.0893
x2 = 0.06974 | – | – | – | – | – | – | – | – | – | 0.208
x2 = 0.1139 | 0.364 | 0.43 | 0.499 | 0.588 | 0.686 | 0.81 | 0.936 | 1.08 | 1.23 | 1.41
x2 = 0.1666 | 0.527 | 0.621 | 0.722 | 0.852 | 0.998 | 1.18 | 1.36 | 1.57 | 1.79 | 2.05
x2 = 0.2307 | 0.638 | 0.75 | 0.883 | 1.04 | 1.25 | 1.48 | 1.73 | 2.01 | 2.31 | 2.65
x2 = 0.3103 | 0.747 | 0.891 | 1.06 | 1.26 | 1.51 | 1.79 | 2.11 | 2.46 | 2.83 | 3.24
x2 = 0.4117 | 0.837 | 1.02 | 1.22 | 1.46 | 1.76 | 2.11 | 2.48 | 2.89 | 3.33 | 3.85
x2 = 0.5454 | 0.928 | 1.11 | 1.31 | 1.61 | 1.94 | 2.37 | 2.82 | 3.33 | 3.85 | 4.44
x2 = 0.7297 | 0.918 | 1.12 | 1.37 | 1.7 | 2.09 | 2.52 | 3.02 | 3.56 | 4.15 | 4.87

Oc1ccc(Cl)c2cccnc12 + C1COCCO1 + CCO
solubility (g/100 g solution)
Settings | 278.15 K | 283.15 K | 288.15 K | 293.15 K | 298.15 K | 303.15 K | 308.15 K | 313.15 K | 318.15 K | 323.15 K
x2 = 0.1156 | 2.02 | 2.27 | 2.73 | 3.17 | 3.66 | 4.34 | 5.1 | 5.96 | 7.04 | 8.35
x2 = 0.2585 | 3.35 | 3.86 | 4.46 | 5.19 | 6.15 | 7.28 | 8.38 | 9.82 | 11.4 | 13.3
x2 = 0.4396 | 4.92 | 5.68 | 6.53 | 7.56 | 8.72 | 10.3 | 11.9 | 13.8 | 15.9 | 18.2
x2 = 0.6765 | 6.81 | 7.83 | 8.96 | 10.3 | 11.8 | 13.8 | 15.8 | 17.9 | 20.5 | 23.3

CCCCOc1ccc(C(=O)CCN2CCCCC2)cc1.Cl + CCO + CCCCCC
solubility (g/100 g solution)
Settings | 278.15 K | 283.15 K | 288.15 K | 293.15 K | 298.15 K | 303.15 K | 308.15 K | 313.15 K | 318.15 K | 323.15 K
x2 = 0.1 | 2.56 | 2.95 | 3.35 | 3.75 | 4.22 | 4.75 | 5.33 | 5.97 | 6.73 | 7.53
x2 = 0.2 | 5.09 | 5.71 | 6.4 | 7.2 | 8.01 | 8.91 | 9.95 | 11.1 | 12.4 | 13.8
x2 = 0.3 | 7.84 | 8.72 | 9.72 | 10.8 | 12 | 13.4 | 14.9 | 16.6 | 18.4 | 20.3
x2 = 0.4 | 10.6 | 11.8 | 13.1 | 14.6 | 16.2 | 17.9 | 19.8 | 21.8 | 24 | 26.4
x2 = 0.5 | 13.7 | 15.2 | 16.8 | 18.6 | 20.5 | 22.6 | 24.8 | 27.3 | 29.9 | 32.6
x2 = 0.6 | 16.8 | 18.8 | 20.6 | 22.7 | 25 | 27.3 | 29.9 | 32.6 | 35.5 | 38.5
x2 = 0.7 | 20.3 | 22.4 | 24.6 | 27 | 29.4 | 32 | 35 | 37.9 | 41 | 44.1
x2 = 0.8 | 23.9 | 26.3 | 28.7 | 31.4 | 34.1 | 36.8 | 39.8 | 43 | 46.3 | 49.5
x2 = 0.9 | 27.7 | 30.4 | 33 | 35.8 | 38.8 | 41.8 | 45 | 48.3 | 51.6 | 54.9

O=C(O)c1ccc(C(=O)O)o1 + C1CCOC1 + O
solubility (g/100 g solution)
Settings | 293.15 K | 298.15 K | 303.15 K | 308.15 K | 313.15 K | 318.15 K | 323.15 K | 328.15 K | 333.15 K
x2 = 0.1 | 1.53 | 1.63 | 1.73 | 1.9 | 2.08 | 2.35 | 2.63 | 2.88 | 3.15
x2 = 0.2 | 3.7 | 3.93 | 4.22 | 4.48 | 4.77 | 5.08 | 5.38 | 5.73 | 6.11
x2 = 0.3 | 4.89 | 5.24 | 5.6 | 5.94 | 6.31 | 6.69 | 7.1 | 7.45 | 7.84
x2 = 0.4 | 6.39 | 6.62 | 6.87 | 7.22 | 7.6 | 7.91 | 8.25 | 8.62 | 9.02
x2 = 0.5 | 6.7 | 6.95 | 7.21 | 7.48 | 7.76 | 8.1 | 8.47 | 8.86 | 9.32
x2 = 0.6 | 6.58 | 6.9 | 7.24 | 7.5 | 7.81 | 8.16 | 8.54 | 9.01 | 9.52
x2 = 0.7 | 6.04 | 6.39 | 6.76 | 7.09 | 7.43 | 7.77 | 8.14 | 8.5 | 8.9
x2 = 0.8 | 4.95 | 5.3 | 5.68 | 5.96 | 6.26 | 6.51 | 6.79 | 7.11 | 7.47
x2 = 0.9 | 3.55 | 3.67 | 3.81 | 3.98 | 4.16 | 4.33 | 4.51 | 4.74 | 4.98

Oc1ccc(Cl)c2cccnc12 + CCOCCO + CCO
solubility (g/100 g solution)
Settings | 278.15 K | 283.15 K | 288.15 K | 293.15 K | 298.15 K | 303.15 K | 308.15 K | 313.15 K | 318.15 K | 323.15 K
x2 = 0.1134 | 1.08 | 1.36 | 1.64 | 1.98 | 2.41 | 2.88 | 3.44 | 4.07 | 4.85 | 5.76
x2 = 0.2542 | 1.61 | 1.9 | 2.21 | 2.69 | 3.17 | 3.76 | 4.43 | 5.22 | 6.15 | 7.04
x2 = 0.434 | 2.17 | 2.57 | 2.99 | 3.57 | 4.14 | 4.77 | 5.59 | 6.57 | 7.64 | 8.85
x2 = 0.6716 | 2.81 | 3.34 | 3.83 | 4.5 | 5.16 | 6.07 | 6.97 | 8.03 | 9.21 | 10.5
